Where “and” joins values, the source holds several entries; their conditions need not be identical. Equal entries are not always repeated.

The nature of assay [1]: ABTS free radical scavenging assay. Particulars: pure compounds; 30 min, 734 nm, n = 3. How it is done: The ABTS free radical scavenging activities of extracts and pure compounds from stem barks of W. ugandensis were tested according to previous studies with slight modifications. ABTS^+ solution was prepared by mixing equal volumes of potassium persulfate (4.9 mM in H2O) and ABTS (7.0 mM in H2O) and then incubated for 12 h in the darkness. The prepared ABTS^+ solution was diluted with MeOH to ensure an absorbance value about 0.700 ± 0.005 at 734 nm. Firstly, 10 µL of appropriately diluted solution of samples was added to the 190 µL ABTS^+ solution in 96-well plate. Secondly, the mixtures were gently shaken and put at room temperature for 30 min in the darkness. Finally, the absorbance was recorded at 734 nm with multifunctional microplate reader. Trolox was used as positive control, and MeOH was used as blank control. Samples and controls were tested in triplicate (n = 3). The antioxidant activities of ABTS were expressed as IC50 and TEAC values. The inhibition of the ABTS radicals was calculated according to the following formula:ABTS scavenging activity (%) = (1 − absorbance of sample/absorbance of blank control) × 100,(2) where ABTS scavenging activities (%) were plotted against the concentration of samples to acquire the IC50.

For the next assay, the target named is T1, COX-2 (human) (Homo sapiens, UniProt P35354).
T1 construct: purchased Beyotime Biotechnology (Shanghai, China) S0168
T1 sequence (P35354 18-604): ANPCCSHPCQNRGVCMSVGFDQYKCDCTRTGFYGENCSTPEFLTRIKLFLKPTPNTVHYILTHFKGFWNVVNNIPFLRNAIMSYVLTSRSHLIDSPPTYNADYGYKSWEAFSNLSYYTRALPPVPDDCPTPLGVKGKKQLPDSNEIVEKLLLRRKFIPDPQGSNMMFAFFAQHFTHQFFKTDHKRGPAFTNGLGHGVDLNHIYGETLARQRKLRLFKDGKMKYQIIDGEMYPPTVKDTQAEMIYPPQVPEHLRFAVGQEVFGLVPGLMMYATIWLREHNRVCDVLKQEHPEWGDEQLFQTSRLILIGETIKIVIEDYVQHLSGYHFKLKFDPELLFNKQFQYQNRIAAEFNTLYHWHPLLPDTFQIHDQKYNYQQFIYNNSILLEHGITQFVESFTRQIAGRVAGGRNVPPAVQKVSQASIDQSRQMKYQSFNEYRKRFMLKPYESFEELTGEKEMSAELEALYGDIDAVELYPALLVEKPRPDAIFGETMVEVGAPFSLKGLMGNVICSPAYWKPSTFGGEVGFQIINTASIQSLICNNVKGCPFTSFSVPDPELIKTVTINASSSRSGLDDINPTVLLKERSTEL
Description: In vitro COX-2 inhibitory assay (COX-2 (human) inhibitor screening kit). The assay is classed as biochemical. The settings on record: for COX-2 inhibitory activity compared with the positive control indomethacin: in words, Figure 7; for IC50: fluorescence, ex 560 nm / em 590 nm, triplicate. How it is done: Firstly, samples were dissolved in DMSO, and prepared into a series of solutions with different concentrations. COX-2 cofactor working solution, COX-2 working solution, COX-2 probe, and COX-2 substrate were prepared according to manufacturer’s instructions, and then diluted 10 times with COX-2 assay buffer, respectively. Secondly, 150 µL Tris-HCl (pH = 7.8), 10 µL COX-2 cofactor working solution, 10 µL COX-2 working solution, and 10 µL sample solution were sequentially added in the 96-well black plates, mixed and incubated at 37 °C for 10 min. The COX-2 working solution of the blank control group was replaced with an equal volume of COX-2 assay buffer, and the sample was replaced with an equal volume of DMSO; the sample of the 100% enzyme activity control group was replaced with an equal volume of DMSO. Thirdly, 10 µL COX-2 probe was added into each well. Finally, 10 µL of COX-2 substrate was quickly added into each well, and incubated at 37 °C in the darkness for 5 min, and followed by the fluorescence measurement. The excitation and emission wavelengths were 560 nm and 590 nm, respectively. […] The experiments were performed in triplicate. The COX-2 inhibitory activity was expressed as IC50. The inhibition of COX-2 was calculated according to the following formula:COX-2 inhibitory activity (%) = (RFU100%Enzyme − RFUSample)/ (RFU100%Enzyme − RFUBlank) × 100,(3) where COX-2 inhibitory activity (%) was plotted against the concentration of samples to acquire the IC50. RFU100%Enzyme, relative fluorescence unit of 100% enzyme control group; RFUSample, relative fluorescence unit of sample; RFUBlank, relative fluorescence unit of blank group.

For the molecule `O=C(/C=C/c1ccc(O)c(O)c1)NCCc1ccc(O)cc1` [compound 7, N-trans-caffeoyltyramine], it took 463 ± 157 µM to reach half-maximal inhibition in assay [1] (IC50). Further, the “COX-2 inhibitory activity compared with the positive control indomethacin” value at COX-2 (human) is “almost the same inhibitory activities”.
In the case of `COc1cc(C2c3c(cc(O)c(O)c3OC)C=C(C(=O)NCCc3ccc(O)cc3)C2C(=O)NCCc2ccc(O)cc2)cc(O)c1O` (stereo not shown) [compound 14], the IC50 (in general, the concentration needed to halve the response being measured) in assay [1] is 5.38 µM and 5.4 µM; against COX-2 (human), 0.123 ± 0.004 µM.
Consider `COc1cc(C2c3c(cc(OC)c(O)c3O)C=C(C(=O)NCCc3ccc(O)cc3)C2C(=O)NCCc2ccc(O)cc2)cc(O)c1O` (stereo not shown) [compound 13], for which the IC50 in assay [1] came out at 69.8 ± 6.3 µM; against COX-2 (human) it was 0.713 ± 0.322 µM.
In turn, `C[C@@H]1O[C@@H](O[C@@H]2[C@@H](O)[C@H](O)[C@@H](CO)O[C@H]2c2cc(-c3cc(=O)c4c(O)cc(O)cc4o3)cc(O)c2O)[C@H](O)[C@H](O)[C@H]1O` [compound 1, 2-[3-[2-O-(6-deoxy-α-L-mannopyranosyl)-β-D-glucopyranosyl]-4,5-dihydroxyphenyl]-5,7-dihydroxy-4H-1-benzopyran-4-one] gave an IC50 in assay [1] of 62.5 ± 4.2 µM. Further, at COX-2 (human), the “COX-2 inhibitory activity compared with the positive control indomethacin” value is “almost the same inhibitory activities”.
On the same counts, the results for “1-(3,4-dihydroxy-5-methoxyphenyl)-1,2-dihydroxy-7,8-dihydroxy-N-[(3,4-dihydroxyphenyl)-ethyl]-N′-[(4-hydroxyphenyl)-ethyl]-6-methoxynaphthalene-2,3-dicarboxamide [compound 11]” are 80 ± 10.3 µM and “almost the same inhibitory activities”.

The record behind these values is publication PMC8001783, “New Lignanamides with Antioxidant and Anti-Inflammatory Activities Screened Out and Identified from Warburgia ugandensis Combining Affinity Ultrafiltration LC-MS with SOD and XOD Enzymes” (Antioxidants, 2021).
